Measured values as given in patent US7175993B2 (Saladax Biomedical, Inc., priority 2004, dated 2007).

How the values were obtained:
Format in all cases: binding, mice
[1] = test system: Monoclonal Ab #1 (monoclonal antibody to taxol); assay: Indirect competitive microtiter plate immunoassay (ELISA), Monoclonal Ab #1
Procedure: (§1) The assay was performed by incubating 50 μL of the analytes to be measured with 50 μL of antibody (produced in example 4) diluted to a titer determined in example 8a. […] Following this incubation the wells of the plate were washed three times with 0.02 M TRIS, 0.9% NaCl, 0.5% Tween-80 and 0.001% Thimerosal, pH 7.8 to remove any material that was not bound. […] To develop a measurable color in the wells, washing was followed by the addition of 100 μL of TMB (TMB Liquid Substrate, Sigma), a substrate for HRP, to develop color in a 10 minute incubation with shaking at room temperature. Following the incubation for color development, 50 μL of stop solution (1.5% sodium fluoride in di H2O) was added to each well to stop the color development and after 10 seconds of shaking the absorbance was determined at 650 nm (Molecular Devices Plate Reader). The amount of antibody in a well was proportional to the absorbance measured and inversely proportional to the amount of taxol in the sample. The absorbance of the color in the wells containing analyte is compared to that with no analyte and a standard curve is generated. […] The cross-reactivity with 6-α-hydroxypaclitaxel was less than 60%. […]
(§2) The assay was performed by incubating 50 μL of the analytes to be measured with 50 μL of antibody (produced in example 4) diluted to a titer determined in example 8a. […] Following this incubation the wells of the plate were washed three times with 0.02 M TRIS, 0.9% NaCl, 0.5% Tween-80 and 0.001% Thimerosal, pH 7.8 to remove any material that was not bound. […] This secondary antibody was capable of binding specifically with murine immunoglobulins producing a colored product when incubated with a substrate. […] To develop a measurable color in the wells, washing was followed by the addition of 100 μL of TMB (TMB Liquid Substrate, Sigma), a substrate for HRP, to develop color in a 10 minute incubation with shaking at room temperature. Following the incubation for color development, 50 μL of stop solution (1.5% sodium fluoride in di H2O) was added to each well to stop the color development and after 10 seconds of shaking the absorbance was determined at 650 nm (Molecular Devices Plate Reader). The amount of antibody in a well was proportional to the absorbance measured and inversely proportional to the amount of taxol in the sample. The absorbance of the color in the wells containing analyte is compared to that with no analyte and a standard curve is generated. […]

[2] = test system: Monoclonal Ab #2 (monoclonal antibody to taxol); assay: Indirect competitive microtiter plate immunoassay (ELISA), Monoclonal Ab #2
Procedure: as §1, §2

[3] = test system: taxol polyclonal antibodies; assay: Indirect competitive microtiter plate immunoassay (ELISA), polyclonal antibodies to taxol (pool of antisera); details: for Cross-reactivity relative to taxol: polyclonal antibody pool
Procedure: as §1, §2

[4] = plate sensitized with Taxol Derivative 5
[5] = plate sensitized with Taxol Derivative 8
[6] = microtiter plate sensitized with Taxol Derivative 5 (example 9a)
[7] = microtiter plate sensitized with Taxol Derivative 8 (example 9b)

| Compound | Cross-reactivity relative to taxol [1, 4] [%] | Cross-reactivity relative to taxol [1, 5] [%] | Cross-reactivity relative to taxol [2, 4] | Cross-reactivity relative to taxol [2, 5] [%] | Cross-reactivity relative to taxol [3, 6] | Cross-reactivity relative to taxol [3, 7] [%] | IC50 ([3]; antisera of the four individual mice combined in the pool) [µg/mL] |
| --- | --- | --- | --- | --- | --- | --- | --- |
| CC(=O)O[C@H]1C(=O)[C@@]2(C)[C@H]([C@H](OC(=O)c3ccccc3)[C@]3(O)C[C@H](OC(=O)[C@H](O)[C@@H](NC(=O)c4ccccc4)c4ccc(O)cc4)C(C)=C1C3(C)C)[C@]1(OC(C)=O)CO[C@@H]1C[C@@H]2O [3′-p-Hydroxypaclitaxel, 3′-p-hydroxypaclitaxel] | 5.9 | 8.1 | ≦2.3% | 1.5 | ≦10% | 0.57 | – |
| CC(=O)O[C@H]1C(=O)[C@@]2(C)[C@H]([C@H](OC(=O)c3ccccc3)[C@]3(O)C[C@H](OC(=O)[C@H](O)[C@@H](NC(=O)c4ccccc4)c4ccccc4)C(C)=C1C3(C)C)[C@]1(OC(C)=O)CO[C@@H]1[C@@H](O)[C@@H]2O [6-α-Hydroxypaclitaxel, 6-α-hydroxypaclitaxel] | 5.1 | 6.5 | ≦4.6% | 2.9 | <58% | 1.60 | – |
| CC(=O)O[C@H]1C(=O)[C@@]2(C)[C@H]([C@H](OC(=O)c3ccccc3)[C@]3(O)C[C@H](O)C(C)=C1C3(C)C)[C@]1(OC(C)=O)CO[C@@H]1C[C@@H]2O [Baccatin III] | 0.13 | 0.17 | ≦0.19% | 0.13 | 0.10% | 0.10 | – |
| CC(=O)O[C@@]12CO[C@@H]1C[C@H](O)[C@@]1(C)C(=O)[C@H](O)C3=C(C)[C@@H](OC(=O)[C@H](O)[C@@H](NC(=O)OC(C)(C)C)c4ccccc4)C[C@@](O)([C@@H](OC(=O)c4ccccc4)[C@H]21)C3(C)C [Docetaxel] | 76 | 77 | 101% | 85 | ≦5% | 0.16 | – |
| CC(=O)O[C@H]1C(=O)[C@@]2(C)[C@H]([C@H](OC(=O)c3ccccc3)[C@]3(O)C[C@H](OC(=O)[C@H](O)[C@@H](NC(=O)c4ccccc4)c4ccccc4)C(C)=C1C3(C)C)[C@]1(OC(C)=O)CO[C@@H]1C[C@@H]2O [Taxol (Paclitaxel), Taxol] | – | – | – | – | – | – | < 0.02 |
